Series [1] relates to swine adipose tissue. In words: inhibition of lipogenesis (incorporation of radioactive glucose into lipid) in pig adipose tissue slices. As to conditions: Sus scrofa, glucose-U-14C, 100 micrograms per milliliter, 37° C., 2 hours, vs control, read-out: Percent Inhibition of lipogenesis. The format is cell-based, pig (swine). The text has this: (§1) The manner in which they cause this effect is not known with certainty; it is believed that they interfere with the synthesis of fatty acids in the tissues. Their effectiveness for this purpose has been ascertained by immersing samples of mammalian liver or adipose tissue in a liquid medium containing radioactive glucose and the test chemical for a period of time, then isolating the lipid from the treated tissue and determining the incorporation of the radioactive carbon into the lipid by means of scintillation counting techniques. These tests were conducted with both liver and adipose tissues, because in some animals the primary site of lipogenesis appears to be liver tissue, while in others it appears to be adipose tissue. The test animals were pigs, sheep, rabbits, cats and dogs.
Described in more detail, the tests were conducted according to the following general procedure:
Tissue slices (200 milligrams for liver; 150 milligrams for adipose tissue) were incubated, at 37° C. for 2 hours with shaking in 3 milliliters of Krebs-Ringer bicarbonate solution containing one-half the normal calcium ion concentration, 60 micromoles of glucose, 0.5 micro-Curie of glucose-U-^14 C, 300 microunits of insulin, and 5% dimethyl sulfoxide (DMSO). The test compounds were added as a solution or a suspension in DMSO and were present at a concentration of 100 micrograms per milliliter of the incubation mixture.
The incubation was terminated by addition of 0.25 milliliter of 1 N sulfuric acid. The incubation mixture was extracted with a total of 25 milliliters of chloroform:methanol (2:1, v/v). The extracts were washed according to Folch et al. (J. Biol. Chem., 226, 497-509, (1957)), air dried, and counted in a liquid scintillation counter with 15 milliliters of counting fluid (two parts toluene containing 0.4% w/v New England Nuclear Omnifluor: 1 part Triton X-100). The tests were conducted in triplicate and were accompanied by control tests in which all ingredients,proportions and conditions were the same except that no test compound was included. From the data obtained was calculated the percent inhibition of lipid synthesis by the test compound in each case.
Compound 2 was tested with respect to all of the animals. The other six compounds were tested only with respect to the pig.
From these and other tests, it was established that in pigs there is little lipogenic activity in the liver tissue. From these and other tests, it also has been established that swine adipose tissue utilizes glucose for lipogenesis, and to be the major site of fatty acid synthesis. The data obtained from the tests using adipose tissue and glucose are set out in Table 1, as the percent inhibition of lipogenesis compared to the results obtained in the control tests wherein only the test compound was omitted.

For series [2], the system named is sheep adipose tissue. In words: inhibition of glucose incorporation into lipids in sheep adipose tissue slices. In kind it is cell-based. As to conditions: 100 micrograms per milliliter, 2 hours.
Excerpt: as §1
(§2) Described in more detail, the tests were conducted according to the following general procedure: […]
(§3) The incubation was terminated by addition of 0.25 milliliter of 1 N sulfuric acid. […] The extracts were washed according to Folch et al. (J. Biol. Chem., 226, 497-509, (1957)), air dried, and counted in a liquid scintillation counter with 15 milliliters of counting fluid (two parts toluene containing 0.4% w/v New England Nuclear Omnifluor: 1 part Triton X-100). […] From the data obtained was calculated the percent inhibition of lipid synthesis by the test compound in each case. […]

Series [3] deals with rabbit adipose tissue. In words: inhibition of glucose incorporation in rabbit adipose tissue slices. The format is cell-based. As to conditions: 100 micrograms per milliliter, 2 hours.
Excerpt: as §1, §2, §3

Series [4] concerns cat adipose tissue. As to the kind of experiment: inhibition of glucose utilization in cat adipose tissue slices. The format is cell-based. As to conditions: 100 micrograms per milliliter, 2 hours, result in words.
Excerpt: as §1, §2, §3

Series [5] relates to rabbit liver. As to the kind of experiment: inhibition of glucose incorporation in rabbit liver slices. Particulars: 100 micrograms per milliliter, 2 hours. The format is cell-based.
Excerpt: as §1, §2, §3

Series [6] has as its system cat liver. As to the kind of experiment: inhibition of glucose utilization in cat liver slices. The format is cell-based. Particulars: 100 micrograms per milliliter, 2 hours.
Excerpt: as §1, §2, §3

The test system of series [7] is sheep liver. In words: inhibition of glucose incorporation into lipids in sheep liver slices. The format is cell-based. Particulars: 100 micrograms per milliliter, 2 hours.
Excerpt: as §1, §2, §3

Series [8] deals with dog adipose tissue. As to the kind of experiment: inhibition of glucose utilization in dog adipose tissue slices. The format is cell-based. As to conditions: 100 micrograms per milliliter, 2 hours.
Excerpt: as §1, §2, §3

In series [9] the test system is lipogenesis in swine adipose tissue. In words: in vivo test of inhibition of lipogenesis in swine, compound in feed, adipose tissue biopsy samples. More on the design: species or system pig (swine). Particulars: young, growing pigs, in feed approximately 50 milligrams per kilogram per day for seven days. The method, then: The effect of compound 2 on inhibition of lipogenesis in swine was confirmed by an in vivo test in which Compound 2 was included in the feed given to young, growing pigs for seven days, at a dosage of approximately 50 milligrams of Compound 2 per kilogram of the pig's body weight per day. Adipose tissue biopsy samples were taken at days 0, 6, 7 and 13 (one week off the drug) and the effect of the test compound on lipogenesis was determined using tissue slices prepared from the biopsy samples, by the procedure used in the in vitro tests.

Molecules are shown by their SMILES.

The inhibition is the share of the control response that was lost under treatment. For `C=CCNC(=O)[C@@H]1C[C@H](O)c2cc(Cl)ccc2O1` (relative stereo) [Compound 7, 6-Chloro-4-hydroxy-N-(2-propenyl)-2H-1-benzopyran-2-carboxamide (cis)], in series [1], the inhibition at 100 µg/mL was 55%.
On the same count and under the same terms, for `C=CCNC(=O)C1CCc2cc(Cl)ccc2O1` (stereo not drawn) [Compound 1, 6-Chloro-3,4-dihydro-N-(2-propenyl)-2H-1-benzopyran-2-carboxamide] the value was 59%.
As to `C=CCNC(=O)C1COc2ccccc2C1` (stereo not drawn) [Compound 2, 3,4-Dihydro-N-(2-propenyl)-2H-1-benzopyran-3-carboxamide], the entries for the “inhibition of glucose incorporation in adipose tissue” value in series [2] and in series [3] were 36% and 22%, respectively. Also, the “inhibition of glucose utilization in adipose tissue” value is “did not inhibit glucose utilization” in series [4] and 73% in [8]. In addition, the inhibition at 100 µg/mL in series [1] stood at 83%. The “inhibition of glucose incorporation into liver” value in [5] is 9%. In addition, the “inhibition of glucose utilization in the liver” value in series [6] turned out to be 26%. For the same molecule, the “inhibition of glucose incorporation in the liver” value in series [7] was found to be 32%. Also, the symptom of toxicity result in [9] is “No symptom of toxicity due to the test compound was noted”. In addition, in series [9] (day 13 (one week off the drug)), the “effect on lipogenesis in vivo” value is given as “significantly reduced lipogenesis”.
Turning to `C=CCNC(=O)C1CCc2ccccc2O1` (stereo not drawn) [Compound 3, 3,4-Dihydro-N-(2-propenyl)-2H-1-benzopyran-2-carboxamide], the inhibition at 100 µg/mL in series [1] was determined as 72%.
Still for that read-out and setting: for `C=CCNC(=O)C1CCc2cc(-c3ccccc3)ccc2O1` (stereo not drawn) [Compound 4, 3,4-Dihydro-6-phenyl-N-(2-propenyl)-2H-1-benzopyran-2-carboxamide] the value was 76%.
The same measure, in the same setting: for `C=CCNC(=O)C1CCc2cc(C3CCCCC3)ccc2O1` (stereo not drawn) [Compound 5, 6-Cyclohexyl-3,4-dihydro-N-(2-propenyl)-2H-1-benzopyran-2-carboxamide] the value was 40%.
Turning to `C=CCNC(=O)C1COc2ccc(Cl)cc2C1` (stereo not drawn) [Compound 6, 6-Chloro-3,4-dihydro-N-(2-propenyl)-2H-1-benzopyran-3-carboxamide], in series [1], the inhibition at 100 µg/mL worked out at 67%.
On to `C=CCNC(=O)C1CCc2cc(Oc3ccccc3)ccc2O1` (stereo not drawn) [Compound 8, 3,4-Dihydro-6-phenoxy-N-(2-propenyl)-2H-1-benzopyran-2-carboxamide], for which the inhibition at 100 µg/mL in series [1] turned out to be 64%.
Still for that read-out and setting: the value for `C=CCNC(=O)C1CCc2cc(C)ccc2O1` (stereo not drawn) [Compound 9, 3,4-Dihydro-6-methyl-N-(2-propenyl)-2H-1-benzopyran-2-carboxamide] was 70%.

(Values after patent publication US4178380A, “Benzopyrancarboxamides” (Shell Oil Company, priority 1978, dated 1979).)
